According to patent publication US11078202B2, “β-lactamase inhibitor and use thereof” (priority 2018, dated 2021):
Structures can show the parent of a compound that is named as a salt.

Key:
Format in all cases: cell-based
[1] = test system: Acinetobacter baumannii XNWB 0007; assay: MIC assay of test compounds combined with ceftazidime (8 μg/mL); conditions: ceftazidime 8 μg/mL fixed
How it was run: (§1)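 Strains grown on TSA, colonies suspended to OD600 0.1-0.15, diluted 300-fold in CAMHB; compound dilutions combined with fixed ceftazidime or imipenem at concentrations given in assay names. Incubated 16-20 h at 35±2 °C; MIC read per CLSI guidelines, with growth and sterility controls.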

[2] = test system: Klebsiella pneumoniae XNWB 0001; assay: as above; conditions: ceftazidime 8 μg/mL fixed
How it was run: as §1

[3] = test system: Klebsiella pneumoniae XNWB 0002; assay: as above; conditions: ceftazidime 8 μg/mL fixed
How it was run: as §1

[4] = test system: Klebsiella pneumoniae XNWB 0003; assay: as above; conditions: ceftazidime 8 μg/mL fixed
How it was run: as §1

[5] = test system: Klebsiella pneumoniae XNWB 0004; assay: as above; conditions: ceftazidime 8 μg/mL fixed
How it was run: as §1

[6] = test system: Klebsiella pneumoniae XNWB 0005; assay: as above; conditions: ceftazidime 8 μg/mL fixed
How it was run: as §1

[7] = test system: Klebsiella pneumoniae XNWB 0006; assay: as above; conditions: ceftazidime 8 μg/mL fixed
How it was run: as §1

[8] = test system: Pseudomonas aeruginosa XNWB 0008; assay: as above; conditions: ceftazidime 8 μg/mL fixed
How it was run: as §1

[9] = test system: Acinetobacter baumannii XNWB 0007; assay: MIC assay of test compounds combined with imipenem (4 μg/mL); conditions: imipenem 4 μg/mL fixed
How it was run: as §1

[10] = test system: Klebsiella pneumoniae XNWB 0001; assay: as above; conditions: imipenem 4 μg/mL fixed
How it was run: as §1

[11] = test system: Klebsiella pneumoniae XNWB 0002; assay: as above; conditions: imipenem 4 μg/mL fixed
How it was run: as §1

[12] = test system: Klebsiella pneumoniae XNWB 0003; assay: as above; conditions: imipenem 4 μg/mL fixed
How it was run: as §1

[13] = test system: Klebsiella pneumoniae XNWB 0004; assay: as above; conditions: imipenem 4 μg/mL fixed
How it was run: as §1

[14] = test system: Klebsiella pneumoniae XNWB 0005; assay: as above; conditions: imipenem 4 μg/mL fixed
How it was run: as §1

[15] = test system: Klebsiella pneumoniae XNWB 0006; assay: as above; conditions: imipenem 4 μg/mL fixed
How it was run: as §1

[16] = test system: Pseudomonas aeruginosa XNWB 0008; assay: as above; conditions: imipenem 4 μg/mL fixed
How it was run: as §1

SMILES	The minimum concentration of test compounds combined with ceftazidime (8 μg/mL) for bacteriostasis [1]	The minimum concentration of test compounds combined with ceftazidime (8 μg/mL) for bacteriostasis [2]	The minimum concentration of test compounds combined with ceftazidime (8 μg/mL) for bacteriostasis [3]	The minimum concentration of test compounds combined with ceftazidime (8 μg/mL) for bacteriostasis [4]	The minimum concentration of test compounds combined with ceftazidime (8 μg/mL) for bacteriostasis [5]	The minimum concentration of test compounds combined with ceftazidime (8 μg/mL) for bacteriostasis [6]	The minimum concentration of test compounds combined with ceftazidime (8 μg/mL) for bacteriostasis [7]	The minimum concentration of test compounds combined with ceftazidime (8 μg/mL) for bacteriostasis [8]	The minimum concentration of test compounds combined with imipenem (4 μg/mL) for bacteriostasis [9]	The minimum concentration of test compounds combined with imipenem (4 μg/mL) for bacteriostasis [10]	The minimum concentration of test compounds combined with imipenem (4 μg/mL) for bacteriostasis [11]	The minimum concentration of test compounds combined with imipenem (4 μg/mL) for bacteriostasis [12]	The minimum concentration of test compounds combined with imipenem (4 μg/mL) for bacteriostasis [13]	The minimum concentration of test compounds combined with imipenem (4 μg/mL) for bacteriostasis [14]	The minimum concentration of test compounds combined with imipenem (4 μg/mL) for bacteriostasis [15]	The minimum concentration of test compounds combined with imipenem (4 μg/mL) for bacteriostasis [16]
N[C@H]1CC[C@@H](c2nnc([C@@H]3CC4(CC4)[C@@H]4CN3C(=O)N4OS(=O)(=O)O)o2)C1 [Example 17, (1R,4S)-4-(5-((1R,3S)-3-aminocyclopentyl)-1,3,4-oxadiazol-2-yl)-6-oxo-5,7-diazaspiro [bicyclo[3.2.1]octane-2,1′-cyclopropan]-7-yl sulfate]	C (C: 16-128 μg/mL)	A (A: <8 μg/mL)	A (A: <8 μg/mL)	A (A: <8 μg/mL)	A (A: <8 μg/mL)	A (A: <8 μg/mL)	A (A: <8 μg/mL)	B (B: 8-16 μg/mL)	B (B: 8-16 μg/mL)	A (A: <8 μg/mL)	A (A: <8 μg/mL)	A (A: <8 μg/mL)	A (A: <8 μg/mL)	A (A: <8 μg/mL)	A (A: <8 μg/mL)	A (A: <8 μg/mL)
N[C@H]1C[C@H](Cc2nnc([C@@H]3CC4(CC4)[C@@H]4CN3C(=O)N4OS(=O)(=O)O)o2)C1 [Example 19, (1R,4S)-4-(5-(((1R,3R)-3-aminocyclobutyl)methyl)-1,3,4-oxadiazol-2-yl)-6-oxo-5,7-diazaspiro[bicyclo[3.2.1]octane-2,1′-cyclopropan]-7-yl sulfate]	C (C: 16-128 μg/mL)	A (A: <8 μg/mL)	A (A: <8 μg/mL)	A (A: <8 μg/mL)	A (A: <8 μg/mL)	A (A: <8 μg/mL)	A (A: <8 μg/mL)	B (B: 8-16 μg/mL)	B (B: 8-16 μg/mL)	A (A: <8 μg/mL)	A (A: <8 μg/mL)	A (A: <8 μg/mL)	A (A: <8 μg/mL)	A (A: <8 μg/mL)	A (A: <8 μg/mL)	B (B: 8-16 μg/mL)
N[C@H]1C[C@H](Cc2nnc([C@@H]3CC4(CC4)[C@@H]4CN3C(=O)N4OS(=O)(=O)O)o2)C1 [Example 20, (1R,4S)-4-(5-(((1S,3S)-3-aminocyclobutyl)methyl)-1,3,4-oxadiazol-2-yl)-6-oxo-5,7-diazaspiro[bicyclo[3.2.1]octane-2,1′-cyclopropan]-7-yl sulfate]	C (C: 16-128 μg/mL)	A (A: <8 μg/mL)	A (A: <8 μg/mL)	A (A: <8 μg/mL)	A (A: <8 μg/mL)	A (A: <8 μg/mL)	A (A: <8 μg/mL)	B (B: 8-16 μg/mL)	B (B: 8-16 μg/mL)	A (A: <8 μg/mL)	A (A: <8 μg/mL)	A (A: <8 μg/mL)	A (A: <8 μg/mL)	A (A: <8 μg/mL)	A (A: <8 μg/mL)	A (A: <8 μg/mL)
NC1(Cc2nnc([C@@H]3CC4(CC4)[C@@H]4CN3C(=O)N4OS(=O)(=O)O)o2)CC1 [Example 21, (1R,4S)-4-(5-((1-aminocyclopropyl)methyl)-1,3,4-oxadiazol-2-yl)-6-oxo-5,7-diazaspiro [bicyclo[3.2.1]octane-2,1′-cyclopropan]-7-yl sulfate]	C (C: 16-128 μg/mL)	A (A: <8 μg/mL)	A (A: <8 μg/mL)	A (A: <8 μg/mL)	B (B: 8-16 μg/mL)	B (B: 8-16 μg/mL)	A (A: <8 μg/mL)	C (C: 16-128 μg/mL)	C (C: 16-128 μg/mL)	A (A: <8 μg/mL)	A (A: <8 μg/mL)	A (A: <8 μg/mL)	A (A: <8 μg/mL)	A (A: <8 μg/mL)	A (A: <8 μg/mL)	C (C: 16-128 μg/mL)
CNC1(Cc2nnc([C@@H]3CC4(CC4)[C@@H]4CN3C(=O)N4OS(=O)(=O)O)o2)CC1 [Example 22, (1R,4S)-4-(5-((1-(methylamino)cyclopropyl)methyl)-1,3,4-oxadiazol-2-yl)-6-oxo-5,7-diazaspiro[bicyclo[3.2.1]octane-2,1′-cyclopropan]-7-yl sulfate]	C (C: 16-128 μg/mL)	B (B: 8-16 μg/mL)	A (A: <8 μg/mL)	B (B: 8-16 μg/mL)	C (C: 16-128 μg/mL)	B (B: 8-16 μg/mL)	A (A: <8 μg/mL)	C (C: 16-128 μg/mL)	C (C: 16-128 μg/mL)	A (A: <8 μg/mL)	A (A: <8 μg/mL)	A (A: <8 μg/mL)	A (A: <8 μg/mL)	A (A: <8 μg/mL)	A (A: <8 μg/mL)	C (C: 16-128 μg/mL)
